The results in this text go back to patent US9481870B2, “Nucleic acid encoding a polypeptide having aminotransferase activity, vectors and host cells comprising the nucleic acid” (KANEKA CORPORATION, priority 2010, dated 2016).

SMILES strings stand for the structures.

What all share (format): biochemical, Pseudomonas sp. MV37
Assay [1] concerns purified TPM. Nature of the assay: Specificity 2 to amino group donor: typical substrates of ω-amino acid transaminase (Example 11). The conditions noted are these: pyruvic acid 14 mM; for activity of TPM for the amino group donor: amino compound 14 mM, pH 7.5; for Relative activity (%): amino group donor 14 mM, pH 7.5, 30° C., 1 hour, (S)-1-phenethylamine = 100. The method, then: (§1) Specifically, first, a purified polypeptide is added to a substrate solution with the following composition so that the volume thereof is 400 μl. After 1 hour of reaction at 30° C., 20 μl of 3N hydrochloric acid is added to stop the reaction. Next, 80 μl of a 0.2 M aqueous sodium carbonate solution and 200 μl of an acetone solution of 3.3 mg/mL Dabsyl chloride are separately added to 20 μl of the thus obtained reaction solution, followed by 10 minutes of reaction at 70° C. Acetic acid (20 μl) is added to the reaction solution and then the solution is stirred. The reaction solution is analyzed by HPLC under the following conditions, and then the quantity of dabsylated alanine is determined. In addition, the concentration of a purified polypeptide to be used herein is adjusted so that the amount of alanine generated is 2.8 mM or less as determined by the determination method (hereinafter, referred to as activity assay B).
The purified TPM obtained in Example 7 was examined to determine its reactivity to typical substrates of ω-amino acid transaminase. First, 20 μL of a purified TPM solution was added to 380 μL of a substrate solution with the composition given below. After 1 hour of reaction at 30° C., 20 μL of 3 N hydrochloric acid was added to stop the reaction. Next, 80 μL of a 0.2 M aqueous sodium carbonate solution and 200 μL of an acetone solution of 3.3 mg/mL Dabsyl chloride were separately added to 20 μL of the thus obtained reaction solution, followed by 10 minutes of reaction at 70° C. 20 μL of acetic acid was added to the solution and then it was stirred. The reaction solution was analyzed by HPLC under the following conditions, and thus the quantity of dabsylated alanine was determined.
(§2) [High Performance Liquid Chromatography (HPLC) Analysis Conditions] • Column: Deverosil ODS-HG-3 (NOMURA CHEMICAL) • Eluent: acetonitrile/0.045 M acetate buffer (pH4.1)=35/65 (volume ratio) • Flow rate: 0.9 mL/minute • Detection: 254 nm

The subject of assay [2] is purified TPM. The assay is described as follows: Specificity to amino group receptor (Example 12). The conditions noted are these: (S)-1-phenethylamine 25 mM, pH 7.0, 30° C., 5 minutes. The method, then:
A substrate solution was added to the purified TPM solution, so that the final concentrations of the components would be as follows. After 5 minutes of reaction at 30° C., 6N hydrochloric acid was added in an amount of 50 μL per mL of the reaction solution, so as to stop the reaction. The reaction solution was analyzed by HPLC under the following conditions.
[High Performance Liquid Chromatography (HPLC) Analysis Conditions] • Column: Wakosil-II 5C18 RS (Wako Pure Chemical Industries, Ltd.) • Eluent: 10 mM potassium phosphate buffer (pH5.3): acetonitrile=3:2 • Flow rate: 1 mL/minute • Detection: 241 nm

The test system of assay [3] is purified TPM. The assay is described as follows: Specificity to amino group donor (dabsylated alanine quantification, Example 10). The conditions noted are these: pyruvic acid 14 mM, pH 7.5, 30° C., 1 hour; for Relative activity (%): amino group donor 14 mM (28 mM racemic body), n-butylamine = 100%. As to the method: as §1
The purified TPM obtained in Example 7 was examined to determine its specificity to amino group donors. First, 20 μL of a purified TPM solution was added to 380 μL of a substrate solution with the composition given below. After 1 hour of reaction at 30° C., 20 μL, of 3 N hydrochloric acid was added to stop the reaction. Next, 80 μl of an aqueous 0.2 M sodium carbonate solution and 200 μl of an acetone solution of 3.3 mg/mL Dabsyl chloride were added to 20 μL, of the thus obtained reaction solution, followed by 10 minutes of reaction at 70° C. 20 μL of acetic acid was added to the reaction solution. The reaction solution was stirred and then analyzed by HPLC under the following conditions, and thus the quantity of dabsylated alanine was determined.
as §2

For `NCCCC(=O)O` [4-aminobutyric acid], in the assay with purified TPM [1], the “activity of TPM for the amino group donor” value (“activity of TPM” below) is reported as “does not exhibit activity” and the “Relative activity (%)” value is recorded as 0%.
As to `CC(=O)CCc1ccccc1` [Benzylacetone], the “Relative activity (%)” value in the assay with purified TPM [2] (substrate concentration 2.5 mM) stood at 12%.
With `CCCC=O` [Butylaldehyde], the “Relative activity (%)” value with purified TPM [2] (substrate concentration 2.5 mM) is recorded as 7%.
The same measure, in the same setting: the figure for `O=C(Cc1ccccc1)c1ccccc1` [Benzyl phenyl ketone] is 3.8%.
In the case of `O=C(O)CCC(=O)C(=O)O` [2-ketoglutaric acid], the “Relative activity (%)” value with purified TPM [2] (substrate concentration 25 mM) was determined as 0%.
`CCCCN` [n-butylamine]: in the assay with purified TPM [3], the “Relative activity (%)” value is 100% and the “activity of TPM” value is reported as “exhibits its activity”.
`NCCCC[C@H](N)C(=O)O` [L-lysine]: in the assay with purified TPM [1], the “activity of TPM” value is on record as “does not exhibit activity” and the “Relative activity (%)” value came out at 0%.
On to `CCCCCC(C)=O` [2-heptanone], for which the “Relative activity (%)” value in the assay on purified TPM [2] (substrate concentration 2.5 mM) is reported as 4.6%.
On to `O=C1CCc2ccccc2C1` [2-tetralone], for which, in the assay on purified TPM [2] (substrate concentration 2.5 mM), the “Relative activity (%)” value is recorded as 17%.
Still for that read-out and setting: in the case of `O=C1CCN(Cc2ccccc2)C1` [1-benzyl-3-pyrrolidinone] it was 4.7%.
Consider `CC(=O)c1ccccn1` [2-acetylpyridine], for which the “Relative activity (%)” value in the assay on purified TPM [2] (substrate concentration 2.5 mM) was 16%.
`CCC(C)N` (racemic) [±2-butylamine]: in the assay on purified TPM [3], the “Relative activity (%)” value amounted to 67% and the “activity of TPM” value is “exhibits its activity”.
As to `O=CC(=O)O` [Glyoxalic acid], the “Relative activity (%)” value in the assay on purified TPM [2] (substrate concentration 25 mM) turned out to be 40%.
On to `CC(=O)C(=O)O` [Pyruvic acid], for which, in the assay on purified TPM [2] (substrate concentration 25 mM), the “Relative activity (%)” value amounted to 100%.
`CCOC(=O)CC(=O)c1ccccc1` [Benzoylacetic acid ethyl]: the “Relative activity (%)” value with purified TPM [2] (substrate concentration 2.5 mM) worked out at 13%.
Regarding `NCCS(=O)(=O)O` [Taurine], in the assay on purified TPM [1], the “activity of TPM” value was “does not exhibit activity” and the “Relative activity (%)” value worked out at 0%.
With `NCc1ccccc1` [benzylamine], in the assay with purified TPM [3], the “Relative activity (%)” value was 95% and the “activity of TPM” value is “exhibits its activity”.
For `CC(=O)c1cnccn1` [Acetylpyrazine], in the assay on purified TPM [2] (substrate concentration 2.5 mM), the “Relative activity (%)” value turned out to be 23%.
For `NCCC(=O)O` [β-alanine], in the assay with purified TPM [1], the “activity of TPM” value is “does not exhibit activity” and the “Relative activity (%)” value is reported as 0%.
`NCCCCN` [Putrescine]: in the assay on purified TPM [1], the “activity of TPM” value is “does not exhibit activity” and the “Relative activity (%)” value is 0%.
In the case of `C[C@H](N)c1ccccc1` [(S)-α-phenethylamine], in the assay with purified TPM [1], the “Relative activity (%)” value was found to be 100%.
